In patent US20230021483A1, “[…] […] METHOD AND CLASSIFICATION OF PHARMACEUTICAL COMPONENTS BY USING TRANSCRIPTOMES” (National Institutes of Biomedical Innovation, Health and …, priority 2016, published 2023):

Key:
liver (LV) = test: Whole organ transcriptome (GeneChip microarray) of liver 6 h after adjuvant administration: sDEGs, hierarchical clustering; type: in vivo, C57BL/6 mice; details: liver; for Number of gene probes with statistically significant changes (sDEGs), LV, Down: fold change <0.667, p<0.01, customized PA call=1; for Number of gene probes with statistically significant changes (sDEGs), LV, Down / Number of gene probes with statistically significant changes (sDEGs), LV, Up: 6 h after adjuvant; for Number of gene probes with statistically significant changes (sDEGs), LV, Up: fold change >1.5, p<0.01, customized PA call=1; for adjuvant group (cluster) in LV: key: G1 (interferon signaling); G2 (metabolism of lipids and lipoproteins); G3 (response to stress); G4 (response to wounding); G5 (phosphate-containing compound metabolic process); G6 (phagosome)
[1] = test system: adjuvant-associated biological themes in LV, SP, LN; details: LV, ID
Procedure, shortened: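 Enrichment score S sums −log(p) over consensus themes whose names contain a pre-selected adjuvant-associated term such as "stress" or "cytokine". Consensus requires a theme in all three mice of a group, p<0.05. Themes come from TargetMine analysis of genes with eij/ei(c)>2.0, Fisher's exact test, Holm-Bonferroni-corrected.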

CC(O)COC[C@H]1O[C@@H]2O[C@H]3[C@H](O)[C@@H](O)[C@@H](O[C@H]4[C@H](O)[C@@H](O)[C@@H](O[C@H]5[C@H](O)[C@@H](O)[C@@H](O[C@H]6[C@H](O)[C@@H](O)[C@@H](O[C@H]7[C@H](O)[C@@H](O)[C@@H](O[C@H]8[C@H](O)[C@@H](O)[C@@H](O[C@H]1[C@H](O)[C@H]2O)O[C@@H]8COCC(C)O)O[C@@H]7COCC(C)O)O[C@@H]6COCC(C)O)O[C@@H]5COCC(C)O)O[C@@H]4COCC(C)O)O[C@@H]3COCC(C)O (stereo partly drawn) [bCD, Hydroxypropyl-beta-cyclodextrin]
adjuvant group (cluster) in LV (liver (LV); hierarchical clustering): G2 | Number of gene probes with statistically significant changes (sDEGs), LV, Down (liver (LV); i.d. administration): 315 | Number of gene probes with statistically significant changes (sDEGs), LV, Up (liver (LV); i.d. administration): 107 | Number of gene probes with statistically significant changes (sDEGs), LV, Down (liver (LV); i.p. administration): 20 | Number of gene probes with statistically significant changes (sDEGs), LV, Up (liver (LV); i.p. administration): 14 | GO annotation: Cytokine-cytokine receptor interaction (Term: cytokine) [1]: 4.24 | GO annotation: Cytokine-cytokine receptor interaction|Endocytosis (Term: cytokine) [1]: 7.76 | GO annotation: I-kappaB kinase/NF-kappaB signaling (Term: NF-kappa B signaling pathway) [1]: 4.21 | GO annotation: NF-kappa B signaling pathway (Term: NF-kappa B signaling pathway) [1]: 6.86 | GO annotation: TNF signaling pathway (Term: TNF signaling pathway) [1]: 10.6 | GO annotation: activation of immune response (Term: immune response) [1]: 0 | GO annotation: activation of innate immune response (Term: innate immune response) [1]: 0 | GO annotation: acute inflammatory response (Term: inflammatory response) [1]: 0 | GO annotation: adaptive immune response (Term: adaptive immune response) [1]: 0 | GO annotation: apoptotic process (Term: apoptosis) [1]: 0 | GO annotation: apoptotic signaling pathway (Term: apoptosis) [1]: 0 | GO annotation: cell chemotaxis (Term: chemotaxis) [1]: 5.73 | GO annotation: cell death (Term: cell death) [1]: 5.8 | GO annotation: cell migration (Term: migration) [1]: 0 | GO annotation: cellular response to cytokine stimulus (Term: cytokine) [1]: 0 | GO annotation: cellular response to interferon-alpha (Term: IFN alpha) [1]: 0 | GO annotation: cellular response to stress (Term: stress) [1]: 0 | GO annotation: chemokine production (Term: chemokine) [1]: 0 | GO annotation: chemokine-mediated signaling pathway (Term: chemokine) [1]: 0 | GO annotation: chemotaxis (Term: chemotaxis) [1]: 0 | GO annotation: cytokine biosynthetic process (Term: cytokine) [1]: 0 | GO annotation: cytokine metabolic process (Term: cytokine) [1]: 0 | GO annotation: cytokine production (Term: cytokine) [1]: 3.82 | GO annotation: cytokine secretion (Term: cytokine) [1]: 0 | GO annotation: cytokine-mediated signaling pathway (Term: cytokine) [1]: 0 | GO annotation: death (Term: cell death) [1]: 0 | GO annotation: defense response (Term: defense response) [1]: 8.51 | GO annotation: defense response to Gram-positive bacterium (Term: defense response) [1]: 0 | GO annotation: defense response to bacterium (Term: defense response) [1]: 0 | GO annotation: defense response to other organism (Term: defense response) [1]: 0 | GO annotation: defense response to protozoan (Term: defense response) [1]: 0 | GO annotation: defense response to virus (Term: defense response) [1]: 0 | GO annotation: granulocyte chemotaxis (Term: chemotaxis) [1]: 0 | GO annotation: granulocyte migration (Term: migration) [1]: 0 | GO annotation: immune response (Term: immune response) [1]: 0 | GO annotation: immune response-activating signal transduction (Term: immune response) [1]: 0 | GO annotation: immune response-regulating signaling pathway (Term: immune response) [1]: 0 | GO annotation: inflammatory response (Term: inflammatory response) [1]: 10.9 | GO annotation: innate immune response (Term: innate immune response) [1]: 0 | GO annotation: innate immune response-activating signal transduction (Term: innate immune response) [1]: 0 | GO annotation: interferon-alpha production (Term: IFN alpha) [1]: 0 | GO annotation: intrinsic apoptotic signaling pathway (Term: apoptosis) [1]: 0 | GO annotation: leukocyte chemotaxis (Term: chemotaxis) [1]: 0 | GO annotation: leukocyte migration (Term: migration) [1]: 0 | GO annotation: leukocyte migration involved in inflammatory response (Term: inflammatory response) [1]: 0 | GO annotation: lymphocyte chemotaxis (Term: chemotaxis) [1]: 0 | GO annotation: lymphocyte migration (Term: migration) [1]: 0 | GO annotation: myeloid leukocyte migration (Term: migration) [1]: 0 | GO annotation: negative regulation of apoptotic process (Term: apoptosis) [1]: 0 | GO annotation: negative regulation of cell death (Term: cell death) [1]: 0 | GO annotation: negative regulation of cytokine production (Term: cytokine) [1]: 0 | GO annotation: negative regulation of defense response (Term: defense response) [1]: 0 | GO annotation: negative regulation of immune response (Term: immune response) [1]: 0 | GO annotation: negative regulation of innate immune response (Term: innate immune response) [1]: 0 | GO annotation: negative regulation of programmed cell death (Term: cell death) [1]: 0 | GO annotation: neutrophil chemotaxis (Term: chemotaxis) [1]: 0 | GO annotation: neutrophil migration (Term: migration) [1]: 0 | GO annotation: positive regulation of I-kappaB kinase/NF-kappaB signaling (Term: NF-kappa B signaling pathway) [1]: 0 | GO annotation: positive regulation of adaptive immune response (Term: adaptive immune response) [1]: 0 | GO annotation: positive regulation of apoptotic process (Term: apoptosis) [1]: 0
